According to the kinase profiling compilation of Christmann-Franck et al. (2016):

Tests used:
Assay in all cases: KINOMEscan competition binding
Settings in all cases: compound 2.0 µM
[1] = tested on: ABL1 (human), P00519 [M351T]
CDK13 (human) = CDK13 (human) (UniProt Q14004)
CDK14 (human) = CDK14 (human) (UniProt O94921)
CDK2 (human) = CDK2 (human) (UniProt P24941)
CDK7 (human) = CDK7 (human) (UniProt P50613)
CDKL1 (human) = CDKL1 (human) (UniProt Q00532)
CDKL3 (human) = CDKL3 (human) (UniProt Q8IVW4)
CLK2 (human) = CLK2 (human) (UniProt P49760)
CSK (human) = CSK (human) (UniProt P41240)
CSNK1E (human) = CSNK1E (human) (UniProt P49674)
CaMK1 (human) = CaMK1 (human) (UniProt Q14012)
[2] = tested on: EGFR (human), P00533 [P753S; 747-752 del]
EIF2AK2 (human) = EIF2AK2 (human) (UniProt P19525)
EPHA1 (human) = EPHA1 (human) (UniProt P21709)
EPHA7 (human) = EPHA7 (human) (UniProt Q15375)
EPHB1 (human) = EPHB1 (human) (UniProt P54762)
EPHB6 (human) = EPHB6 (human) (UniProt O15197)
FGFR1 (human) = FGFR1 (human) (UniProt P11362)
[3] = tested on: FGFR3 (human), P22607 [G697C]
[4] = tested on: FLT3 (human), P36888 [N841I]
[5] = tested on: FLT3 (human), P36888 [R834Q]
[6] = tested on: KIT (human), P10721 [D816H]
MAP2K4 (human) = MAP2K4 (human) (UniProt P45985)
MET (human) = MET (human) (UniProt P08581)
NEK6 (human) = NEK6 (human) (UniProt Q9HC98)
NEK9 (human) = NEK9 (human) (UniProt Q8TD19)
NTRK3 (human) = NTRK3 (human) (UniProt Q16288)
PHKG2 (human) = PHKG2 (human) (UniProt P15735)
PIK3CA (human) = PIK3CA (human) (UniProt P42336)
PKN2 (human) = PKN2 (human) (UniProt Q16513)
PLK2 (human) = PLK2 (human) (UniProt Q9NYY3)
PLK3 (human) = PLK3 (human) (UniProt Q9H4B4)
RIOK1 (human) = RIOK1 (human) (UniProt Q9BRS2)
RIOK3 (human) = RIOK3 (human) (UniProt O14730)
RPS6KB1 (human) = RPS6KB1 (human) (UniProt P23443)
SRPK1 (human) = SRPK1 (human) (UniProt Q96SB4)
STK35 (human) = STK35 (human) (UniProt Q8TDR2)
STK38L (human) = STK38L (human) (UniProt Q9Y2H1)
SYK (human) = SYK (human) (UniProt P43405)
TBK1 (human) = TBK1 (human) (UniProt Q9UHD2)
TYRO3 (human) = TYRO3 (human) (UniProt Q06418)
ULK3 (human) = ULK3 (human) (UniProt Q6PHR2)
VRK2 (human) = VRK2 (human) (UniProt Q86Y07)

STK38L (human), sequence (Q9Y2H1 whole entry, looked up): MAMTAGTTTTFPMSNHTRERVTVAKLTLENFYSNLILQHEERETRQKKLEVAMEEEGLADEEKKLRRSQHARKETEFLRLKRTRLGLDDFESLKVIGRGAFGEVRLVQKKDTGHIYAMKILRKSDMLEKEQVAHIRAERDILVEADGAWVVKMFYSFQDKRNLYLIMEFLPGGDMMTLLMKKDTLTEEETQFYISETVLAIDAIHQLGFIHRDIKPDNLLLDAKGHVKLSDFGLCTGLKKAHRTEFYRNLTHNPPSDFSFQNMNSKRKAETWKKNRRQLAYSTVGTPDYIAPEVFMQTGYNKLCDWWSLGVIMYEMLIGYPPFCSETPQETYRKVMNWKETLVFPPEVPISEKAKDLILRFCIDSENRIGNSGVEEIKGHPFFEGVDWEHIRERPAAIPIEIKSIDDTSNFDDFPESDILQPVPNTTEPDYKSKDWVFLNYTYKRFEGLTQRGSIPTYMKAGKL
TBK1 (human), sequence (Q9UHD2 whole entry, looked up): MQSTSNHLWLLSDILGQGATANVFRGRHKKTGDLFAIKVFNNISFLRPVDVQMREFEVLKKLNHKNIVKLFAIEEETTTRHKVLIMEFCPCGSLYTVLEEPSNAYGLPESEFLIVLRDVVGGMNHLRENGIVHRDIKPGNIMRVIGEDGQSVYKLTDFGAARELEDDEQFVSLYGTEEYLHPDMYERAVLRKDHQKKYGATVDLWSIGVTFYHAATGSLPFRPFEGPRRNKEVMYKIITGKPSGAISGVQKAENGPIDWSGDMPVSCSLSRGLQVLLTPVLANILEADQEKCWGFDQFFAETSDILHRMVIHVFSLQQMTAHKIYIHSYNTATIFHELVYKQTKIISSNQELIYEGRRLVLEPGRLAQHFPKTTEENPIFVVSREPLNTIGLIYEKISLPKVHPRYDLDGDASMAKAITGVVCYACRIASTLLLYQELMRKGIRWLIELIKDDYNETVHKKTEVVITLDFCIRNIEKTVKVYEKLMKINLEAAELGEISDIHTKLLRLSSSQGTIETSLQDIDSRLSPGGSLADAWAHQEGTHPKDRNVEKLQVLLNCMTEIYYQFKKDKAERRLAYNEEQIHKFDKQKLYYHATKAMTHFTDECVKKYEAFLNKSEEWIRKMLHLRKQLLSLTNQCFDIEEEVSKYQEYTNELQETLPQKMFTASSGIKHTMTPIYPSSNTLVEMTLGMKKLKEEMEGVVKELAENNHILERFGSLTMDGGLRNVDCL
CLK2 (human), sequence (P49760 whole entry, looked up): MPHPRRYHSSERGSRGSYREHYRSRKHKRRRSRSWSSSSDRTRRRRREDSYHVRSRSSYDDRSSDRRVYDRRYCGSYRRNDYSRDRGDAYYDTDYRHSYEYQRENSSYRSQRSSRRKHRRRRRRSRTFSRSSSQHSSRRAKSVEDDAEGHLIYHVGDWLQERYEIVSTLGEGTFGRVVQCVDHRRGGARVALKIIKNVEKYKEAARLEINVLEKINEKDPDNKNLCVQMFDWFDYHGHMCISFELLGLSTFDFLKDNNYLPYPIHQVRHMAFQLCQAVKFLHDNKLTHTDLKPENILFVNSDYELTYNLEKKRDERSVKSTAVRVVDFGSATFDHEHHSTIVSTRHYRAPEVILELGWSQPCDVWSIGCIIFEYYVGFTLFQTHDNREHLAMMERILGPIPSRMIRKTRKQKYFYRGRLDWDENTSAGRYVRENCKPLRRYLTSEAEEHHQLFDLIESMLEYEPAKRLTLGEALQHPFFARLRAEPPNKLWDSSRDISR
SRPK1 (human), sequence (Q96SB4 whole entry, looked up): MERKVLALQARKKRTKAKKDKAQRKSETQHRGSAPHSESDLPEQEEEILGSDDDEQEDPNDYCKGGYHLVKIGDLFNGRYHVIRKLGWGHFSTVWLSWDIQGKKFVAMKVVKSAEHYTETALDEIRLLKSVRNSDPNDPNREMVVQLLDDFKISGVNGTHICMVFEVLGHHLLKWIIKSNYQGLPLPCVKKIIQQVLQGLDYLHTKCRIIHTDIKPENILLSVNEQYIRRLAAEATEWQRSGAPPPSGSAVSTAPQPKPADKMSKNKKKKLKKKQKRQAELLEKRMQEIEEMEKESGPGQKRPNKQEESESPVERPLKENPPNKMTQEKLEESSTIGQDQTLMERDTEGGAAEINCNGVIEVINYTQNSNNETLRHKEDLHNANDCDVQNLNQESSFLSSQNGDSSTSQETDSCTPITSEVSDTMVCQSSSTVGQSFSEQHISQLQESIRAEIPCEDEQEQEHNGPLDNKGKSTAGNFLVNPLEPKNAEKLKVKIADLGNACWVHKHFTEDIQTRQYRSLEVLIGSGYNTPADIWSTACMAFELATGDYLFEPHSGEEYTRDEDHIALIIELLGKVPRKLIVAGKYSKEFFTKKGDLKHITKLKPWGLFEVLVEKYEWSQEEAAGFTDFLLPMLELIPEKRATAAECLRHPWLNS
MET (human), sequence (P08581 whole entry, looked up): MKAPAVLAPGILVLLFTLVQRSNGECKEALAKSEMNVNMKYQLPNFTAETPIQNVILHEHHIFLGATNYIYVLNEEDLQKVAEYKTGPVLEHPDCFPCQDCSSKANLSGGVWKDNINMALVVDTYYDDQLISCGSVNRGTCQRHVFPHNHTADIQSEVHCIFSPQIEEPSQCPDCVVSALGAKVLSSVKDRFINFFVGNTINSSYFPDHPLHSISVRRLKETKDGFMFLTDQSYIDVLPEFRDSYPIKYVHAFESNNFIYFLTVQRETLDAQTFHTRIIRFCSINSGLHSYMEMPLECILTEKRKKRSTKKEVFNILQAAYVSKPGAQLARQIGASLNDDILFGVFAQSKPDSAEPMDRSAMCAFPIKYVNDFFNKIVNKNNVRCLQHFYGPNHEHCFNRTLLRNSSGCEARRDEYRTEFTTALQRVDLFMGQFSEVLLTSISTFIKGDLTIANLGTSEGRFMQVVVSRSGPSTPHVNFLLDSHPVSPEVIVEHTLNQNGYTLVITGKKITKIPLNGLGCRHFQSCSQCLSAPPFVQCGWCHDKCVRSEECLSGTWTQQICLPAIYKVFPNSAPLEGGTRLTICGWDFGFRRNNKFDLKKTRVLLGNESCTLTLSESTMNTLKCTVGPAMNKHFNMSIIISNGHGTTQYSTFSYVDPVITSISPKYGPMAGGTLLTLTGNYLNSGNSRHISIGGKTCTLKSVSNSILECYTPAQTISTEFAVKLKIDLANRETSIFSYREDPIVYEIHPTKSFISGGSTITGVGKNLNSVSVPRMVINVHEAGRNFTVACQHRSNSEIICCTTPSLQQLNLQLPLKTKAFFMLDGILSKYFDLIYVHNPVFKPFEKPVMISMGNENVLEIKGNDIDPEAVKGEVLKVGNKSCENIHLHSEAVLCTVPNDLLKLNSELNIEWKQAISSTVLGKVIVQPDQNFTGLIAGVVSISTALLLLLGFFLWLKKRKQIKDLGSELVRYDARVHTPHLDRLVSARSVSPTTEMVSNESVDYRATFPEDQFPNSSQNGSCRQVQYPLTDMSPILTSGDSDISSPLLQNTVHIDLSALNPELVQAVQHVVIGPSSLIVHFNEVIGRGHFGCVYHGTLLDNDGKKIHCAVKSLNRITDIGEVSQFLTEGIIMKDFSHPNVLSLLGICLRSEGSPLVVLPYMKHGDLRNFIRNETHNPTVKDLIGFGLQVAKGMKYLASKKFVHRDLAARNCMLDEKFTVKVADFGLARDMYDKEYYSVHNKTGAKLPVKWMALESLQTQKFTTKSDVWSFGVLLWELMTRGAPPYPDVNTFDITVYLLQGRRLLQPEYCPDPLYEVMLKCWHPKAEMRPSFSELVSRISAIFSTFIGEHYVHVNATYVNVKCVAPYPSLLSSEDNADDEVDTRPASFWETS
EPHB1 (human), sequence (P54762 whole entry, looked up): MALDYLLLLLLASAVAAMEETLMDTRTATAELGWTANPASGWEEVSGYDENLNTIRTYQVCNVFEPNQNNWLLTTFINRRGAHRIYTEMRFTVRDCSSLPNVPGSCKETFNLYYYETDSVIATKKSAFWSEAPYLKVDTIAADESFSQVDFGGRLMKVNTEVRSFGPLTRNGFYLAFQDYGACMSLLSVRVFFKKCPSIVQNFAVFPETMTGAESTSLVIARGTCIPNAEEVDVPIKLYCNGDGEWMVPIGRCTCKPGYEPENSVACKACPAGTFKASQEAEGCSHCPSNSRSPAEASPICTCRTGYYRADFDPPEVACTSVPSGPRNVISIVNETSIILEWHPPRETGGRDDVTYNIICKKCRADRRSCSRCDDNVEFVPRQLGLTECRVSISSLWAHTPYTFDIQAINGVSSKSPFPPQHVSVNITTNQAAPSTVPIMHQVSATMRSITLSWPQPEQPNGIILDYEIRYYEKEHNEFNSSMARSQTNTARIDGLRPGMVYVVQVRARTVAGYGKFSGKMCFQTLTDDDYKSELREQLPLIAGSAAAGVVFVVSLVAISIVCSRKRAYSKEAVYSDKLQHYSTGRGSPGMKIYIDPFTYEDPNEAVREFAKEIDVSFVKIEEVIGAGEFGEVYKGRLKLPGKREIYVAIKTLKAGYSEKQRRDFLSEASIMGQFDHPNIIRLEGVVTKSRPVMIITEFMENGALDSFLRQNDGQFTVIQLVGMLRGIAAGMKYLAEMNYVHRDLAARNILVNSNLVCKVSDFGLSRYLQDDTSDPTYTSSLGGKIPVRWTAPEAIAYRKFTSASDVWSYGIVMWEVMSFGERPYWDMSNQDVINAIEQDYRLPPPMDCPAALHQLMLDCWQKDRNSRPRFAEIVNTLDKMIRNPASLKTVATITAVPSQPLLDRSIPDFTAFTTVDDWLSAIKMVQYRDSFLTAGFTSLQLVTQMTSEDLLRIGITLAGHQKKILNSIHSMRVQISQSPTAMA
CDKL1 (human), sequence (Q00532 whole entry, looked up): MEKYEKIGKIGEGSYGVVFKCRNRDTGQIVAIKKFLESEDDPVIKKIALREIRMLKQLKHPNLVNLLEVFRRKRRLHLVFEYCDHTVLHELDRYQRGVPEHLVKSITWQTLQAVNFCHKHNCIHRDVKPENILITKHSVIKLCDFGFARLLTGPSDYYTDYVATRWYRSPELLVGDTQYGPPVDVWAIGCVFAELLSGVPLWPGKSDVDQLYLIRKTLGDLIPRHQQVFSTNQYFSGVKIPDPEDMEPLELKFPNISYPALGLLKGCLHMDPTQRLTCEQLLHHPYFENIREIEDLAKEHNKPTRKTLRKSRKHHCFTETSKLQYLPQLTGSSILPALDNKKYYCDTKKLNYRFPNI

Structure (SMILES): N#Cc1ccc2ncnc(NCCc3ccc4ccccc4c3)c2c1
- kinase still bound, per cent of control [1]: 100%
- kinase still bound, per cent of control (CDK13 (human)): 100%
- kinase still bound, per cent of control (CDK14 (human)): 100%
- kinase still bound, per cent of control (CDK2 (human)): 93%
- kinase still bound, per cent of control (CDK7 (human)): 80%
- kinase still bound, per cent of control (CDKL1 (human)): 100%
- kinase still bound, per cent of control (CDKL3 (human)): 100%
- kinase still bound, per cent of control (CLK2 (human)): 74%
- kinase still bound, per cent of control (CSK (human)): 100%
- kinase still bound, per cent of control (CSNK1E (human)): 100%
- kinase still bound, per cent of control (CaMK1 (human)): 99%
- kinase still bound, per cent of control [2]: 89%
- kinase still bound, per cent of control (EIF2AK2 (human)): 72%
- kinase still bound, per cent of control (EPHA1 (human)): 89%
- kinase still bound, per cent of control (EPHA7 (human)): 93%
- kinase still bound, per cent of control (EPHB1 (human)): 87%
- kinase still bound, per cent of control (EPHB6 (human)): 100%
- kinase still bound, per cent of control (FGFR1 (human)): 92%
- kinase still bound, per cent of control [3]: 100%
- kinase still bound, per cent of control [4]: 95%
- kinase still bound, per cent of control [5]: 100%
- kinase still bound, per cent of control [6]: 100%
- kinase still bound, per cent of control (MAP2K4 (human)): 89%
- kinase still bound, per cent of control (MET (human)): 100%
- kinase still bound, per cent of control (NEK6 (human)): 96%
- kinase still bound, per cent of control (NEK9 (human)): 100%
- kinase still bound, per cent of control (NTRK3 (human)): 100%
- kinase still bound, per cent of control (PHKG2 (human)): 100%
- kinase still bound, per cent of control (PIK3CA (human)): 78%
- kinase still bound, per cent of control (PKN2 (human)): 100%
- kinase still bound, per cent of control (PLK2 (human)): 98%
- kinase still bound, per cent of control (PLK3 (human)): 80%
- kinase still bound, per cent of control (RIOK1 (human)): 71%
- kinase still bound, per cent of control (RIOK3 (human)): 100%
- kinase still bound, per cent of control (RPS6KB1 (human)): 97%
- kinase still bound, per cent of control (SRPK1 (human)): 100%
- kinase still bound, per cent of control (STK35 (human)): 100%
- kinase still bound, per cent of control (STK38L (human)): 90%
- kinase still bound, per cent of control (SYK (human)): 100%
- kinase still bound, per cent of control (TBK1 (human)): 100%
- kinase still bound, per cent of control (TYRO3 (human)): 87%
- kinase still bound, per cent of control (ULK3 (human)): 100%
- kinase still bound, per cent of control (VRK2 (human)): 100%
